# Assay results as given in patent US10668049B2, “Methods of treating cognitive decline with transforming growth factor beta inhibitors” (The Regents of the University of California, priority 2008, dated 2020).
# How the values were obtained:
# Smad2 = assay: Smad2-P Western blot of cortical lysates after in vivo albumin treatment; design: species or system rat; details: animals exposed for 48 hours, compared to sham-operated controls
# Method: All experimental procedures were approved by the ethical committees dealing with experiments on animals at Charité University Medicine, Berlin and Ben-Gurion University of the Negev, Beer-Sheva. The in vivo experiments were performed as previously described (ivens et al., 2007; Seiffert et al., 2004). Adult male Wistar rats were treated with artificial cerebrospinal fluid (aCSF, composition in mM: 129 NaCl, 21 NaHCO3, 1.25 NaH2PO4, 1.8 MgSO4, 1.6 CaCl2, 3 KCl, 10 glucose) supplemented with deoxycholic acid (DOC, 2 mM, Sigma-Aldrich, Steinheim, Germany), bovine serum albumin (BSA, 0.1 mM. Merck, Darmstadt, Germany) corresponding to 25% of serum albumin concentration, or with TGF-β1 (10 ng/ml, Peprotech, Rocky Hill, N.J.). Sham-operated animals (perfused with aCSF) served as controls. […] Animals were sacrificed 7/8, 24, or 48 hours following treatment. […]
# To determine whether albumin binds to TGF-β receptors, co-immunoprecipitation using antibodies against albumin or TGF-βRII was performed on cortical lysate samples treated with albumin. An expected hand corresponding to TGF-βRII was detected in samples immunoprecipitated with the TGF-βRII antibody. More importantly, this band was also detected in samples pre-incubated with albumin when immunoprecipitated with the albumin antibody and probed for TGF-βRII (FIG. 2a). […]
# brain slices = assay: Field potentials during train stimulation in brain slices exposed to albumin in sACSF; type: cell-based, rat; details: for field potential duration (at ⅓ maximal amplitude), 1st stimulus / field potential duration (at ⅓ maximal amplitude), 5th stimulus: treated
# Method: For electrophysiological experiments, rats were deeply anesthetized with isoflurane and then decapitated. Brains were quickly removed, and transverse hippocampal-cortical slices ([…] thick) were prepared using a vibratome (Campden Instruments, Loughborough, UK). Slices were maintained in a humidified, carbogenated (5% CO2 and 95% O2) gas atmosphere at 36±1° C. and perfused with ACSF in a standard interface chamber (Seiffert et al., 2004; Ivens et al., 2007). To mimic the altered ionic environment during BBB disruption, recordings were acquired in a serum-adapted electrolyte solution (sACSF; see Seiffert et al. 2004). sACSF was similar in composition to the ACSF except for different concentrations of MgSO4 (0.8 mM), CaCl2 (1.3 mM), KCl (5.7 mM) and glutamine (1 mM). “Treated” slices were incubated with sACSF containing 0.1 mM bovine serum albumin for 2 h before transfer to the perfusion chamber.
# Electrophysiological recordings were obtained 6-10 h following perfusion with sACSF. Control slices were treated similarly, using sACSF without albumin. For extracellular recordings, glass microelectrodes (˜3 MΩ, 154 mM NaCl) were positioned in layer 4 of the neocortex. Slices were stimulated with brief (100 μs) pulses, by using bipolar stimulation electrodes placed at the border between white and gray matter in the same conical column. Trains of 50 stimuli were applied at 2, 5, 10, 20, 50 and 100 Hz, at 2.5× threshold stimulation intensity. […] Extracellular potassium concentrations ([K+]o) were measured with ion-sensitive microelectrodes (ISMEs; Lux and Neher, 1973: Jauch et al., 2002).
# The simulation data presented above predicted maximal EPSP facilitation at 20 Hz when [K^+]o clearance is reduced and decreased facilitation (at 50-100 Hz) when the only change induced is glutamate accumulation in the synaptic cleft. Field potentials in response to stimulation at various frequencies in brain slices during “epileptogenesis” (exposure to albumin in sACSF) compared to controls (sACSF alone) were therefore measured.
# [1] = 100 Hz stimulation, treated (n=4)
substance,measurement,setting,value
"albumin: bovine serum albumin, used to induce epileptogenesis",Smad2 phosphorylation levels in cortical lysates,Smad2,increase in Smad2 phosphorylation
same,"stimulation-induced long-lasting epileptiform discharges, slices showing them",brain slices; 5 Hz stimulation,2 of 4
same,"stimulation-induced long-lasting epileptiform discharges, slices showing them",brain slices; 10-Hz stimulation,4 of 4
same,"field potential duration (at ⅓ maximal amplitude), 1st stimulus",brain slices; 10 Hz,6.5 ± 0.7 ms
same,"field potential duration (at ⅓ maximal amplitude), 5th stimulus",brain slices; 10 Hz,13.1 ± 2.6 ms
same,"stimulation-induced long-lasting epileptiform discharges, slices showing them",brain slices; 20 Hz stimulation,3 of 4
same,"field potential duration (at ⅓ maximal amplitude), 1st stimulus",brain slices; 20 Hz,6.6 ± 0.8 ms
same,"field potential duration (at ⅓ maximal amplitude), 5th stimulus",brain slices; 20 Hz,12.9 ± 2.9 ms
same,"field potential amplitude, 1st stimulus",brain slices; [1],1.44±0.36 mV
same,"field potential amplitude, 5th stimulus",brain slices; [1],0.47±0.09 mV
